Starred links: 1 amine or outer side, 2 acyl side, 3 side chain; linkers in the order of their positions; H or OH if unused. Non-standard residues stand in square brackets, D forms with d. Residues, ends and D or L forms follow the SMILES beside them. Groups on a side chain read outwards from the residue. *: point of attachment. γGlu = O=C(O)[C@H](CCC(=O)[*:2])N[*:1]; Palmitoyl = CCCCCCCCCCCCCCCC(=O)*; Aib = CC(C)(N)C(=O)O
Legend:
[1] = Water solubility of the peptide as a function of pH; type: physicochemical; conditions: between pH 4 and pH 6
[2] = Chemical stability of the peptide in aqueous formulation as a function of pH; type: physicochemical; conditions: above pH 7.6

CCCCCCCCCCCCCCCC(=O)N[C@@H](CCC(=O)N[C@@H](CCC(=O)NCCCC[C@H](NC(=O)[C@H](CC(=O)O)NC(=O)[C@H](CO)NC(=O)[C@@H](NC(=O)[C@H](Cc1ccccc1)NC(=O)[C@@H](NC(=O)CNC(=O)[C@H](CCC(N)=O)NC(=O)C(C)(C)NC(=O)[C@@H](N)Cc1c[nH]cn1)[C@@H](C)O)[C@@H](C)O)C(=O)N[C@@H](CO)C(=O)N[C@@H](CCCCN)C(=O)N[C@@H](Cc1ccc(O)cc1)C(=O)N[C@@H](CC(C)C)C(=O)N[C@@H](CC(=O)O)C(=O)NC(C)(C)C(=O)N[C@@H](CCCNC(=N)N)C(=O)N[C@@H](C)C(=O)N[C@@H](C)C(=O)N[C@@H](CCC(N)=O)C(=O)N[C@@H](CC(=O)O)C(=O)N[C@@H](Cc1ccccc1)C(=O)N[C@H](C(=O)N[C@@H](CCC(N)=O)C(=O)N[C@@H](Cc1c[nH]c2ccccc12)C(=O)N[C@@H](CC(C)C)C(=O)N[C@@H](CCSC)C(=O)N[C@@H](CC(N)=O)C(=O)N[C@H](C(=O)N[C@@H](CCCCN)C(=O)N[C@@H](CCC(N)=O)C(=O)O)[C@@H](C)O)C(C)C)C(=O)O)C(=O)O [peptide of SEQ ID NO. 1, HUQGTFTSD K(γGlu-γGlu-C16) SKYLD aibRAAQDFVQWLMNTKγGlu-amide] (H-H[Aib]QGTFTSDK([γGlu-γGlu-Palmitoyl])SKYLD[Aib]RAAQDFVQWLMNTKQ-OH; N-terminus and C-terminus assumed)
water solubility [1]: poor water solubility | chemical stability [2]: poor chemical stability

From US11471512B2, “Pharmaceutical compositions of a peptide” (Merck Sharp & Dohme Corp., priority 2019, dated 2022)
